What all share (assay type): cell-based, human
Experiment [1] deals with H1-hESC-derived S3D5 cells. As to the kind of experiment: Cell number characterization using the Nucleocounter NC-100. On the procedure:
A summary of a differentiation method, including the important medium components, growth factors and small molecules that were added to each stage, and key stage-specific markers of the differentiating intestinal midgut endoderm cells (FOXA2; CDX2; KLF5; SOX9; PDX1^LO) is depicted in FIG. 1A. As compared to the neutral pH noted for S2D2 (7.35±0.04), cells were exposed to slightly acidic conditions in the BLAR medium, during the entirety of stage 3 (pH; S3D1, 6.98±0.05; S3D2, 7.02±0.04; S3D5, 7.18±0.03) (FIG. 1B), and as a result of lower sodium bicarbonate levels in BLAR medium. The pH of the culture can range from about 6.8 to 7.2 during the five days of stage 3. FIG. 1C depicts representative phase-contrast images of a S3D5 monolayer (left), and human epithelial colon adenocarcinoma cell line (“Caco-2”) (right), which was used as a benchmark for characterization of differentiation. A uniform morphology at S3D5 was observed.

Experiment [2] concerns H1-hESC-derived S3D5 cells. Kind of experiment: FACS quantification of protein co-presence in S3D5 cells. On the procedure:
(§1) Differentiation: The cultures were differentiated using the following protocol. During Stages 1 through 3 of the protocol, cultures were maintained on planar adherent cultures. […] The following nomenclature, S#D#, specifies exact time during Stages 1 through 3. For example, S1D3 is stage 1 day 3. Briefly, each stage defines differentiation towards definitive endoderm (stage 1), primitive gut tube (stage 2), and intestinal midgut endoderm (stage 3). • a. Stage 1 (3 days): Cells were cultured for one day in the following Stage 1 media:
Quantification of differentiated cells: For quantification of protein presence co-localization, S3D5 cells were harvested and analyzed by FACS. FACS staining was conducted as described in Nature Biotechnology, 2014 (32) 11, 1121-1133, incorporated herein by reference in its entirety, and using the antibodies listed in Table II. In brief, differentiated cells were incubated in TrypLE™ Express (Life Technologies, Carlsbad, Calif., Catalog No. 12604) for 5-10 minutes at 37° C., released into a single-cell suspension, after which they were washed twice with a staining buffer of PBS containing 0.2% BSA (BD Biosciences, San Jose, Calif., Catalog No. 554657). Intracellular antibody staining was accomplished by utilizing the LIVE/DEAD Violet Fluorescent reactive dye (Life Technologies, Carlsbad, Calif., Catalog No. L34955) at 4° C. for 30 minutes followed by a single wash in cold PBS. Fixing of cells was in 300 μl of Cytofix/Cytoperm Buffer (BD Biosciences, San Jose, Calif., Catalog No. 554723) followed by two washes in Perm/Wash Buffer (BD Biosciences, San Jose, Calif., Catalog No. 554722). Cells were then incubated with the appropriate antibodies at 4° C. for 30 minutes (for unconjugated antibodies) or 1 hour (for conjugated antibodies), and then washed twice prior to analysis on the BD FACS Canto II using BD FACS Diva Software with at least 30,000 events being acquired. Non-viable cells were excluded during FACS analysis, and gating was determined by using isotype antibodies (“IgG”). IgG FACS data is shown as the top panel for each FACS experiment presented. Antibodies were tested for specificity using positive controls, such as Caco-2 cells, or negative controls, such as S1D3 definitive endoderm (“DE”) cells.

The subject of experiment [3] is H1-hESC-derived S3D5 cells. As to the kind of experiment: Gene expression by qPCR (Taqman Arrays) in S3D5 cells. As for the experimental part: as §1
For quantification of gene expression at various stages, Caco-2, H1-hESC, S1D3, S2D2, S3D2 and S3D5 cells were harvested, as described in Nature Biotechnology, 2014 (32) 11, 1121-1133. Briefly, gene expression was assessed in cells using custom Taqman® Arrays (Applied Biosystems, Foster City, Calif.); Open Array® (OA) was used for CDX2, FOXA2, SOX2, SOX9, PDX1, ALB, PTF1A, and Taqman® Low Density Array (TLDA) was used for KLF5, HOXC5, and LGR5, with housekeeping gene GAPDH used for both tests. Data were analyzed using Sequence Detection Software (Applied Biosystems, Foster City, Calif.), and normalized using GAPDH as a housekeeping gene to undifferentiated H1-hESC using the ΔΔCt method. Primer details are outlined in Table IV.

The mark [4] stands for this setting: S3D5, compared to pancreas-biased S4D3 cells.

Consider “BMP4: Bone morphogenic protein-4, 50 ng/ml with 1 μM retinoic acid in BLAR medium during Stage 3”, for which the “S3D5 cells obtained from one hESC” value in experiment [1] is recorded as 4.56±2.60. In experiment [2], the “S3D5 cells exhibiting SOX2 and CDX2 co-presence” value was found to be 1.45±0.15%; the “percent of cells co-positive for both CDX2 and PDX1” value worked out at 69.4±14.2%; the “percent of cells co-present for both CDX2 and SOX9” value is 98.7±0.25%. The “percent of S3D5 cells co-present for both CDX2 and FOXA2 protein” value in experiment [2] (Stage 3 in BLAR medium with 1 μM retinoic acid and 50 ng/ml BMP) is 90.0±5.85%. The “percentage KI67-protein positive cells of total S3D5 cells” value in experiment [2] (total cells >90% CDX2-positive) is reported as 16.8±3.12%. In addition, in experiment [3] (S3D5), the ALB gene expression result is given as “not observed”, the HOXA13 gene expression entry is on record as “not induced”, the HOXC5 gene expression result was “strongly induced” and the KLF5 gene expression entry is listed as “upregulated”. Besides, in experiment [3] (S3D5), the LGR5 gene expression entry was “not induced”; the SOX2 gene expression result is “below levels seen in hESC and Caco-2 cells”. Moreover, the SOX9 gene expression entry in experiment [3] (S3D5, compared to Caco-2 cells) is recorded as “Strong induction”. Further, in experiment [3] (setting [4]), the PDX1 gene expression entry is recorded as “induced at low levels” and the PTF1A gene expression result is “not induced”. In experiment [3] (during Stage 3), the CDX2 gene expression result is on record as “induced” and the FOXA2 gene expression result is reported as “maintained”.

The values are drawn from patent publication US10420803B2, “Differentiation of pluripotent stem cells to intestinal midgut endoderm cells” (Janssen Biotech, Inc., priority 2016, dated 2019).
